How the values were obtained:
[1] = tested on: coq null mutants; conditions: for viability of coq null mutants: 200 μM fatty acid, plate dilution assay
Experimental: FIG. 3. […] Yeast coq3, coq7 and coq9 null mutants were prepared in the W303 yeast genetic background (WT). Yeast strains were grown in YPD medium (1% Bacto-yeast extract, 2% Bacto-peptone, 2% dextrose) and harvested while in log phase growth (OD600 nm=0.1-1.0). Cells were washed twice with sterile water and resuspended in phosphate buffer (0.10 M sodium phosphate, pH 6.2, 0.2% dextrose) to an OD600 nm=0.2. Samples were removed and 1:5 serial dilutions starting at 0.20 OD/ml were plated on YPD plate medium, to provide a zero time untreated control (shown in top left panel). The designated fatty acids were added to 200 μM final concentration to 20 ml of yeast in phosphate buffer. At 2 h, 4 h, and 16 h samples were removed, 1:5 serial dilutions prepared, and spotted onto YPD plate medium. Pictures were taken after 2 days of growth at 30° C.
FIG. 4. […] The fatty acid sensitive assay was performed as described in FIG. 3, except that 100 μl aliquots were removed at 1, 2, and 4 h and, following dilution, spread onto YPD plates. Pictures were taken after 2 to 2.5 days, and the number of colonies counted.
Q-less yeast (coq mutants) provide an ideal system to assess in vivo autoxidation of fatty acids. Coenzyme Q (ubiquinone or Q) serves as a small lipophilic antioxidant as well as an electron shuttle in the respiratory chain of the mitochondrial inner membrane. Ten S. cerevisiae genes (COQ1-COQ10) are required for coenzyme Q biosynthesis and function, and the deletion of any results in respiratory deficiency (Tran U C, Clarke C F. Mitochondrion 2007; 7S,S62).
A plate dilution assay can be used to assess PUFA sensitivity. This assay can be performed by spotting serial five-fold dilutions of aliquots onto YPD plate media (FIG. 3). The sensitivity of the different strains can be observed by visual inspection of the density of cells in each spot.

[2] = tested on: Wild-type yeast; conditions: 200 μM fatty acid, 4 h incubation
Experimental: Uptake of exogenously supplied fatty acids by yeast. WT (W303) yeast were harvested at log phase and incubated in the presence of 200 μM of the designated fatty acid for either 0 or 4 h.
Wild-type yeast were harvested during log phase growth and incubated in the presence of exogenously added fatty acid (for 0 or 4 h) in the presence of phosphate buffer plus 0.20% dextrose, as described for the fatty acid sensitivity assay. Cells were harvested, washed twice with 10 ml sterile water, and the yeast cell pellets were then processed by alkaline methanolysis as described above. The fatty acids are detected as methylesters (FAMEs) following GC-MS with C17:0 added as an internal standard (FIG. 6). The amounts of 18:3 and D4 detected after 4 h incubation were extrapolated from the calibration curve.

[3] = tested on: coq null mutants; conditions: four hour treatment; cited from earlier work
[4] = tested on: wild-type (strain W303-1B) cells; conditions: four hour treatment; cited from earlier work
[5] = Kinetics of oxygen consumption during oxidation in chlorobenzene initiated by AMVN; format: physicochemical
Experimental: FIG. 7. Kinetics of O2 consumption accompanied the oxidation of 0.71 M LA (plots 1 and 2) and 0.71 M D2-LA (plot 3) in chlorobenzene initiated by 40 mM AMVN at 37° C. Plot 2—0.23 mM HPMC was added to 0.71 M LA.
The kinetics of oxygen consumption during the oxidation of LA and D2-LA was studied with a glass capillary microvolumeter (FIG. 7). The rate of oxidation, ROX, was measured as a slope of [O2] traces. The rate of initiation, RIN, was determined by the inhibitor method with HPMC (“6-hydroxy-2,2,5,7,8-pentamethylbenzochroman”) as a reference inhibitor. RIN was calculated from the induction period of inhibited oxidation, tIND: RIN=2·[HPMC]/tIND. […] When the process was inhibited by 0.23 mM chain-breaking antioxidant HPMC, the duration of the induction period, tIND, was about 48 min, with the RIN value of around 0.16×10^−6 M/s. […] The latter precludes a direct determination of RIN. […] An estimated kinetic isotope effect (“KIE”), from comparison of ROX for LA and D2-LA, was around 6.1×10^−6/0.18×10^−6≈35. A similar KIE was determined during the oxidation of LA and 11,11-d2-LA in Triton X-100 aqueous micelles (data not shown). For comparative purposes, the theoretical KIE is 6.9 at 25° C. See Carpenter, “Determination of Organic Reaction Mechanisms” (John Wiley & Sons, 1984), p. 89.

[6] = Kinetics of the oxidation of mixtures of D2-LA and LA; format: physicochemical; conditions: data not shown
Experimental: FIG. 8. Dependence of the rate of oxidation of the mixture of LA and D2-LA in chlorobenzene solution on mixture composition. Conditions: [LA]+[11,11-d2-LA]=0.775 M; [AMVN]=0.0217 M; 37° C. RIN=(1.10±0.08)×10^−7 M/sec.
To simulate the likely in vivo conditions, the kinetics of the oxidation of the mixtures of D2-LA and LA were studied (FIG. 8). In the experiments, the concentration of LA plus 11,11-d2-LA was 0.775 M; the concentration of AMVN was 0.0217 M; and the reactions were carried out at 37° C. The results afforded an RIN of 1.10±0.08×10^−7 M/sec.

| SMILES | viability of coq null mutants [1] | incorporation by yeast [2] | protection in the yeast model [1] | length of the kinetic chain v=ROX/RIN [5] | also measured |
| --- | --- | --- | --- | --- | --- |
| CC/C=C\C/C=C\C/C=C\CCCCCCCC(=O)O [linolenic acid, (9Z,12Z,15Z)-9,12,15-Octadecatrienoic acid, reference compound] | dramatic loss of viability | avidly incorporate | – | – | Q-less (coq2, coq3, and coq5) yeast mutants viable following treatment [3]: Less than 1%; wild-type cells remaining viable [4]: 70% |
| [2H]C([2H])(/C=C\CC)/C=C\CC/C=C\CCCCCCC(=O)O [14,14-D2-linolenic acid, 14,14-Dideutero-cis,cis,cis-octadeca-8,12,15-trienoic acid] | – | – | comparable protection | – | – |
| CCCCC/C=C\C/C=C\CCCCCCCC(=O)O [LA, (9Z,12Z)-9,12-Octadecadienoic acid, reference compound] | – | – | – | 38±3 | – |
| [2H]C([2H])(/C=C\CC)/C=C\C([2H])([2H])/C=C\CCCCCCCC(=O)O [D4-linolenic acid, 11,11,14,14-Tetradeutero-cis,cis,cis-octadeca-8,12,15-trienoic acid] | not killed | avidly incorporate | – | – | viability of treated cells compared with oleic ([1]; quantitative colony counting): similar |
| [2H]C([2H])(/C=C\CCCCC)/C=C\CCCCCCCC(=O)O [D2-LA, 11,11-Dideutero-cis,cis-octadeca-9,12-dienoic acid] | – | – | – | ≈ 1.1 | effect of addition of HPMC [5]: did not result in the decrease in ROX and the appearance of any detectable induction period; effect on oxidation of mixture with non-deuterated methyl linoleate [6]: qualititatively similar effect |
| [2H]C([2H])(/C=C\C/C=C\CC)C/C=C\CCCCCCC(=O)O [11,11-D2-linolenic acid, 11,11-Dideutero-cis,cis,cis-octadeca-8,12,15-trienoic acid] | – | – | comparable protection | – | – |
